Experimental data reported in patent US9790217B2, “Pyridinyloxy- and phenyloxy-pyrazolyl compounds” (Hoffmann-La Roche Inc., priority 2014, dated 2017).

How the values were obtained:
human CYP11B1 = human CYP11B1 (Homo sapiens (Human), UniProt P15538); test: G-402 cellular enzyme assay, human CYP11B1 (cortisol release, HTRF); type: cell-based; conditions: G-402 cells expressing human CYP11B1; 1 μM Deoxycortisol
Text: (§1) Herein we identified the use of the G-402 cell line as a host cell to ectopically express (transiently or stably) enzymes of the CYP11 family. Specifically we developed stable G-402 cells expressing ectopically human CYP11B1, human CYP11B2, human CYP11A1, cynmolgus CYP11B1 or cynomolgus CYP11B2 enzyme activity. Importantly the identified cell line G-402 expresses co-factors (adrenodoxin and adrenodoxin reductase) important for the activity of the CYP11 family and no relevant enzyme activity of the CYP11 family (in comparison to H295R cells) was detected in these cells. Therefore the G-402 cell line is uniquely suited as a host cell for the ectopic expression of enzymes from the CYP11 family.
(§2) G-402 cells can be obtained from ATCC (CRL-1440) and were originally derived from a renal leiomyoblastoma.
(§3) The expression plasmids contains the ORF for either human/cyno CYP11B1 or CYP11B2 under the control of a suitable promoter (CMV-promoter) and a suitable resistance marker (neomycin). Using standard techniques the expression plasmid is transfected into G-402 cells and these cells are then selected for expressing the given resistance markers. Individual cell-clones are then selected and assessed for displaying the desired enzymatic activity using 11-Deoxycorticosterone (Cyp11B2) or 11-Deoxycortisol (Cyp11B1) as a substrate.
(§4) G-402 cells expressing CYP11 constructs were established as described above and maintained in McCoy's 5a Medium Modified, ATCC Catalog No. 30-2007 containing 10% FCS and 400 μg/ml G418 (Geneticin) at 37° C. under an atmosphere of 5% CO2/95% air. Cellular enzyme assays were performed in DMEM/F12 medium containing 2.5% charcoal treated FCS and appropriate concentration of substrate (0.3-10 uM 11-Deoxycorticosterone, 11-Deoxycortisol or Corticosterone). For assaying enzymatic activity, cells were plated onto 96 well plates and incubated for 16 h. An aliquot of the supernatant is then transferred and analyzed for the concentration of the expected product (Aldosterone for CYP11B2; Cortisol for CYP11B1). The concentrations of these steroids can be determined using HTRF assays from CisBio analyzing either Aldosterone or Cortisol.
(§5) Inhibition of the release of produced steroids can be used as a measure of the respective enzyme inhibition by test compounds added during the cellular enzyme assay. The dose dependent inhibition of enzymatic activity by a compound is calculated by means of plotting added inhibitor concentrations (x-axes) vs. measured steroid/product level (y-axes). The inhibition is then calculated by fitting the following 4-parameter sigmoidal function (Morgan-Mercer-Flodin (MMF) model) to the raw data points using the least squares method:
(§6) [formula] wherein, A is the maximum y value, B is the EC50 factor determined using XLFit, C is the minimum y value and D is the slope value.
(§7) EC50 values for compounds claimed herein were tested with the G402-based assay system described. Cyp11B2 enzyme activity was tested in presence of 1 μM Deoxycorticosterone and variable amounts of inhibitors; Cyp11B1 enzyme activity was tested in presence of 1 μM Deoxycortisol and variable amounts of inhibitors.

human CYP11B2 = human CYP11B2 (Homo sapiens (Human), UniProt P19099); test: G-402 cellular enzyme assay, human CYP11B2 (aldosterone release, HTRF); type: cell-based; conditions: G-402 cells expressing human CYP11B2; 1 μM Deoxycorticosterone
human CYP11B2, sequence (P19099 25-503): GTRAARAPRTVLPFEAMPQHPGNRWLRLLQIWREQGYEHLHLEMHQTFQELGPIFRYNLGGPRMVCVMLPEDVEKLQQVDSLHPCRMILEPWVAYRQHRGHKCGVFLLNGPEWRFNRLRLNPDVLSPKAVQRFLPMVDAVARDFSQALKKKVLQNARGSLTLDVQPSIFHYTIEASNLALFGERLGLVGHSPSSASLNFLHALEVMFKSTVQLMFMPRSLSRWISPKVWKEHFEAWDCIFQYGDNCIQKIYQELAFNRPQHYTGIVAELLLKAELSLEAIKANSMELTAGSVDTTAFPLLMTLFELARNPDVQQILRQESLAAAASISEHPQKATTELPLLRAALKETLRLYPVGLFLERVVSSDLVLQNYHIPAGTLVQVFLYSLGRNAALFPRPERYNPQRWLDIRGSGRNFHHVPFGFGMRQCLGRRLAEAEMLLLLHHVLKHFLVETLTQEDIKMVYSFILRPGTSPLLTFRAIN
Text: as §1, §2, §3, §4, §5, §6, §7

human CYP11B1, sequence (P15538 25-503): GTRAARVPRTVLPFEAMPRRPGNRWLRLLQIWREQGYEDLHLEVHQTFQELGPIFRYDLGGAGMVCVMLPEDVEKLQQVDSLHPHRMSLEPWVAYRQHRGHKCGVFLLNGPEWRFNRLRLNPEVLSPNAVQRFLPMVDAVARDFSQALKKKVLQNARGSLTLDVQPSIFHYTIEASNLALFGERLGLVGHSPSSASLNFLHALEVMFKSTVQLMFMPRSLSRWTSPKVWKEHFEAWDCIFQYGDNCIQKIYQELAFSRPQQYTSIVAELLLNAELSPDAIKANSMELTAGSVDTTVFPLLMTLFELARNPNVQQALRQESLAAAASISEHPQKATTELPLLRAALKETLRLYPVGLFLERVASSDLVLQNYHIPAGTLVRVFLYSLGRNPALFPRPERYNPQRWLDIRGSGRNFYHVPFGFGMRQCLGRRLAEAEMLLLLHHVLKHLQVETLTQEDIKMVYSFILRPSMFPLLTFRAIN

EC50 (human CYP11B1) [nM]	EC50 (human CYP11B2) [nM]	SMILES
28	4.3	N#Cc1ccc(Oc2cn[nH]c2-c2cccc(OCc3ccnc(Cl)c3)c2F)cc1 [Example 86, 4-[[3-[3-[(2-Chloropyridin-4-yl)methoxy]-2-fluorophenyl]-1H-pyrazol-4-yl]oxy]benzonitrile]
> 30000	1500	N#Cc1ccc(Oc2cn[nH]c2-c2ccccc2C(=O)O)cc1 [Example 40, 2-[4-(4-Cyanophenoxy)-1H-pyrazol-3-yl]benzoic acid]
159	18.6	Fc1ccc(-c2[nH]ncc2Oc2ccc(Cl)cc2)c(F)c1 [Example 15, 4-(4-Chlorophenoxy)-5-(2,4-difluorophenyl)-1H-pyrazole]
1970	463	COc1ccc(Oc2cn[nH]c2-c2ccc(Cl)cc2)cc1 [Example 2, 3-(4-Chlorophenyl)-4-(4-methoxyphenoxy)-1H-pyrazole]
522	60.8	CSc1ccc(-c2[nH]ncc2Oc2ccc(Cl)cc2)c(Cl)c1 [Example 17, 5-(2-Chloro-4-methylsulfanylphenyl)-4-(4-chlorophenoxy)-1H-pyrazole]
167	7.9	Fc1ccccc1-c1[nH]ncc1Oc1ccc(Cl)cc1 [Example 9, 4-(4-Chlorophenoxy)-5-(2-fluorophenyl)-1H-pyrazole]
350	10.2	Fc1cc(Cl)ccc1Oc1cn[nH]c1-c1ccccc1Cl [Example 24, 4-(4-Chloro-2-fluorophenoxy)-5-(2-chlorophenyl)-1H-pyrazole]
18.5	0.2	N#Cc1ccc(Oc2cn[nH]c2-c2ccccc2Cl)cc1 [Example 25, 4-[[5-(2-Chlorophenyl)-1H-pyrazol-4-yl]oxy]benzonitrile]
134	1.5	N#Cc1ccc(Oc2cn[nH]c2-c2ccccc2Cl)c(F)c1 [Example 28, 4-[[5-(2-Chlorophenyl)-1H-pyrazol-4-yl]oxy]-3-fluorobenzonitrile]
1380	323	Clc1ccc(Oc2cn[nH]c2-c2ccc(Cl)cc2)cc1 [Example 3, 4-(4-Chlorophenoxy)-3-(4-chlorophenyl)-1H-pyrazole]
387	113	Clc1ccc(Oc2cn[nH]c2-c2ccccc2Cl)cn1 [Example 19, 2-Chloro-5-[[5-(2-chlorophenyl)-1H-pyrazol-4-yl]oxy]pyridine]
841	101	Fc1cccc(Oc2cn[nH]c2-c2ccc(Cl)cc2Cl)n1 [Example 21, 2-[[5-(2,4-Dichlorophenyl)-1H-pyrazol-4-yl]oxy]-6-fluoropyridine]
835	60.8	COc1ccc(Cl)cc1-c1[nH]ncc1Oc1ccc(Cl)cc1 [Example 10, 3-(5-Chloro-2-methoxyphenyl)-4-(4-chlorophenoxy)-1H-pyrazole]
75.7	4	FC(F)Oc1ccccc1-c1[nH]ncc1Oc1ccc(Cl)cc1 [Example 8, 4-(4-Chlorophenoxy)-5-[2-(difluoromethoxy)phenyl]-1H-pyrazole]

The next lines start with the compound.

SMILES	EC50 (human CYP11B1) [nM]	EC50 (human CYP11B2) [nM]
Cn1nncc1COc1ccccc1-c1[nH]ncc1Oc1ccc(C#N)cc1 [Example 81, 4-[[3-[2-[(3-Methyltriazol-4-yl)methoxy]phenyl]-1H-pyrazol-4-yl]oxy]benzonitrile]	171	2.5
N#Cc1ccc(Oc2cn[nH]c2-c2cccc(OCc3ccccc3)c2)cc1 [Example 36, 4-[[5-(3-Phenylmethoxyphenyl)-1H-pyrazol-4-yl]oxy]benzonitrile]	52.9	16.8
Cn1cc(C(=O)N2CCCC(c3[nH]ncc3Oc3ccc(C#N)cc3)C2)cn1 (racemic) [Example 63, (rac)-4-[[3-[1-(1-Methylpyrazole-4-carbonyl)piperidin-3-yl]-1H-pyrazol-4-yl]oxy]benzonitrile]	6470	150
N#Cc1ccc(Oc2cn[nH]c2-c2cccc(Cn3ccc(=O)cc3)c2)cc1 [Example 72, 4-[[3-[3-[(4-Oxopyridin-1-yl)methyl]phenyl]-1H-pyrazol-4-yl]oxy]benzonitrile]	19300	1630
N#Cc1ccc(Oc2cn[nH]c2-c2cccc(C(=O)N3CC(CO)C3)c2)cc1 [Example 47, 4-[[3-[3-[3-(Hydroxymethyl)azetidine-1-carbonyl]phenyl]-1H-pyrazol-4-yl]oxy]benzonitrile]	159	281
N#Cc1ccc(Oc2cn[nH]c2-c2ccccc2OCc2cccnc2)cc1 [Example 77, 4-[[3-[2-(Pyridin-3-ylmethoxy)phenyl]-1H-pyrazol-4-yl]oxy]benzonitrile]	11.4	0.3
CC(=O)N1CCN(C(=O)c2cccc(-c3[nH]ncc3Oc3ccc(C#N)cc3)c2)CC1 [Example 44, 4-[[3-[3-(4-Acetylpiperazine-1-carbonyl)phenyl]-1H-pyrazol-4-yl]oxy]benzonitrile]	> 30000	313
N#Cc1ccc(Oc2cn[nH]c2-c2cccc(CO)c2)cc1 [Example 49, 4-[[3-[3-(Hydroxymethyl)phenyl]-1H-pyrazol-4-yl]oxy]benzonitrile]	85	13.2
Cc1cccc(Oc2c[nH]nc2-c2ccc(Cl)cc2Cl)n1 [Example 22, 2-[[3-(2,4-Dichlorophenyl)-1H-pyrazol-4-yl]oxy]-6-methylpyridine]	611	42.1
CC(=O)N1CCC(Oc2cccc(-c3[nH]ncc3Oc3ccc(C#N)cc3)c2)C1 (racemic) [Example 58, (rac)-4-[[3-[3-(1-Acetylpyrrolidin-3-yl)oxyphenyl]-1H-pyrazol-4-yl]oxy]benzonitrile]	1510	215
Cc1cc(COc2cccc(-c3[nH]ncc3Oc3ccc(C#N)cc3)c2)on1 [Example 52, 4-[[3-[3-[(3-Methyl-1,2-oxazol-5-yl)methoxy]phenyl]-1H-pyrazol-4-yl]oxy]benzonitrile]	32.3	14.8
CCCCOc1cccc(-c2[nH]ncc2Oc2ccc(C#N)cc2)c1 [Example 59, 4-[[5-(3-Butoxyphenyl)-1H-pyrazol-4-yl]oxy]benzonitrile]	102	10.9
N#Cc1ccc(Oc2cn[nH]c2-c2cccc(OCc3ccccn3)c2)cc1 [Example 50, 4-[[3-[3-(Pyridin-2-ylmethoxy)phenyl]-1H-pyrazol-4-yl]oxy]benzonitrile]	51.6	10.4
N#Cc1ccc(Oc2cn[nH]c2-c2cccc(COc3cccc(F)n3)c2)cc1 [Example 69, 4-[[3-[3-[(6-Fluoropyridin-2-yl)oxymethyl]phenyl]-1H-pyrazol-4-yl]oxy]benzonitrile]	47.7	16.9
Cc1ncc(-c2[nH]ncc2Oc2ccc(C#N)cc2)s1 [Example 66, 4-[[3-(2-Methyl-1,3-thiazol-5-yl)-1H-pyrazol-4-yl]oxy]benzonitrile]	2060	68.5
COC(=O)c1cccc(-c2[nH]ncc2Oc2ccc(C#N)cc2F)c1 [Example 38, Methyl 3-[4-(4-cyano-2-fluorophenoxy)-1H-pyrazol-3-yl]benzoate]	321	31.9
N#Cc1ccc(Oc2cn[nH]c2-c2ccccc2Cn2ccc(=O)cc2)cc1 [Example 83, 4-[[3-[2-[(4-Oxopyridin-1-yl)methyl]phenyl]-1H-pyrazol-4-yl]oxy]benzonitrile]	2880	321
